According to patent US12077786B2, “Methods of cell selection and modifying cell metabolism” (LONZA LTD, priority 2018, dated 2024):

Tests used:
[1] = tested on: cell pools constructed using the P5CS/eGFP vector (GSKO cells); assay: P5CS/eGFP cell pools grown without proline with P5CS inhibitor, 96 deep well plates; assay type: cell-based, Chinese hamster; conditions: with increase in inhibitor concentration; media lacking proline; 24-216 hours
Method: FIGS. 8A-8F are a series of diagrams showing cell pools generated using P5CS overexpression and cultured in the absence of proline, and in the presence of L-azetidine-2-carboxylic acid, a P5CS inhibitor. L-azetidine-2-carboxylic acid was added at a variety of different concentrations and cells were cultured in 96 deep well plates for 9 days. These cells were analyzed for cell growth, as measured by viable cell concentration (FIG. 8A) and culture viability (FIG. 8B). Cells were also analyzed for mean culture fluorescence (FIG. 8C) and percentage of cells exceeding the predetermined thresholds of 10^2 (FIG. 8D) and 10^3 (FIG. 8E).
FIGS. 9A-9F are a series of diagrams showing cell pools generated using P5CS overexpression and cultured in the absence of proline, and in the presence of 3,4-dehydro-L-proline, a P5CS inhibitor. 3,4-dehydro-L-proline was added at a variety of different concentrations and cells were cultured in 96 deep well plates for 9 days. These cells were analyzed for cell growth, as measured by viable cell concentration (FIG. 9A) and culture viability (FIG. 9B). Cells were also analyzed for mean culture fluorescence (FIG. 9C) and percentage of cells exceeding the predetermined thresholds of 10^2 (FIG. 9D) and 10^3 (FIG. 9E).
FIGS. 10A-10F are a series of diagrams showing cell pools generated using P5CS overexpression and cultured in the absence of proline, and in the presence of L-4-thiazolidinecarboxylic acid, a P5CS inhibitor. L-4-thiazolidinecarboxylic acid was added at a variety of different concentrations and cells were cultured in 96 deep well plates for 9 days. These cells were analyzed for cell growth, as measured by viable cell concentration (FIG. 10A) and culture viability (FIG. 10B). Cells were also analyzed for mean culture fluorescence (FIG. 10C) and percentage of cells exceeding the predetermined thresholds of 10^2 (FIG. 10D) and 10^3 (FIG. 10E).
In order to assess the capacity of the proline/P5CS system to generate recombinant cell pools, vectors comprising the P5CS gene and a gene of interest were transfected into cells and subsequently cultured in the absence of proline in an attempt to generate recombinant cell pools. Briefly, 1×10^7 Lonza's GSKO cells were electroporated with 20 μg plasmid which was first linearized using PvuI restriction enzyme (NEB) and purified using sodium acetate and ethanol precipitation. The construct used contained both the P5CS gene for evaluation as a selection marker and eGFP as a reporter gene. Transfections were carried out in CM76 medium in the absence of proline but supplemented with L-glutamine to achieve a final concentration of 6 mM. The cells were then cultured in 25 ml of this medium in a T75 flask for 10 days before being transferred to 10 ml suspension culture, also in proline absent medium. The resulting pool was analyzed using flow cytometry. Cell samples were first centrifuged at 1,000 rpm for 5 minutes and resuspended in 500 μl PBS. Samples were then loaded onto the probe of a FACScalibur™ (BD biosciences) and fluorescence intensity was measured in relation to the cell count. The forward scatter (FSC) was measure using the E-1 amplifier and side scatter (SSC) set to 465 whilst FL1 recorded cells at 473; all settings were converted to Log scales. In order to facilitate the adherence of suspension cells, coverslips were first submerged in poly-L-lysine and incubated for 15 minutes at room temperature. Coverslips were then removed and left to dry in a sterile environment before transferring to a 24 well plate. Cells were cultured at 37° C. overnight to facilitate adhering of cells to the coverslip before aspirating the medium and adding 250 μl of 4% paraformaldehyde in PBS and incubating for 20 minutes at 37° C. to fix cells. Subsequently two 1 ml PBS washes were carried out before 250 μl 0.1% triton X100 in PBS was added and incubated for 5 minutes at room temperature to permeablize cells. […]

[2] = tested on: cell pools constructed using the P5CS/eGFP vector (GSKO cells); assay: P5CS/eGFP cell pools grown without proline with P5CS inhibitor, static 24 well plates; assay type: cell-based, Chinese hamster; conditions: with increase in inhibitor concentration; media lacking proline; 24-216 hours
Method: FIGS. 11A-11E are a series of diagrams showing analysis of cell pools generated using P5CS overexpression and cultured in the absence of proline, and in the presence of L-azetidine-2-carboxylic acid, a P5CS inhibitor. L-azetidine-2-carboxylic acid was added at a variety of different concentrations and cells were cultured in static 24 well plates for 9 days. These cells were analyzed for cell growth, as measured by viable cell concentration (FIG. 11A) and culture viability (FIG. 11B). Cells were also analyzed for mean culture fluorescence (FIG. 11C) and percentage of cells exceeding the predetermined thresholds of 10^2 (FIG. 11D) and 10^3 (FIG. 11E).
FIGS. 12A-12E are a series of diagrams showing analysis of cell pools generated using P5CS overexpression and cultured in the absence of proline, and in the presence of 3,4-dehydro-L-proline, a P5CS inhibitor. 3,4-dehydro-L-proline was added at a variety of different concentrations and cells were cultured in static 24 well plates for 9 days. These cells were analyzed for cell growth, as measured by viable cell concentration (FIG. 12A) and culture viability (FIG. 12B). Cells were also analyzed for mean culture fluorescence (FIG. 12C) and percentage of cells exceeding the predetermined thresholds of 10^2 (FIG. 12D) and 10^3 (FIG. 12E). […]

Row | Structure (SMILES) | cell growth (viable cell number) [1] | mean fluorescence (eGFP) [1] | cell growth (viable cell number) [2] | mean fluorescence (eGFP) [2]
1 | O=C(O)[C@@H]1C=CCN1 [3,4-dehydro-L-proline] | slower cell growth | higher mean fluorescence | – | –
2 | O=C(O)[C@@H]1CSCN1 [L-4-thiazolidinecarboxylic acid] | slower cell growth | higher mean fluorescence | – | –
3 | O=C(O)[C@@H]1CCN1 [L-azetidine-2-carboxylic acid] | slower cell growth | higher mean fluorescence | slower cell growth | higher mean fluorescence
